Data published in ChEMBL document CHEMBL2069187, “2-Amino-1,3,4-thiadiazole derivative (FABT) inhibits the extracellular signal-regulated kinase pathway and induces cell cycle arrest in human non-small lung carcinoma cells” (Bioorg Med Chem Lett, 2012).
Activity calls are given as the source filed them. The calls are words filed in the database; no cut-off is given here.

Tests used:
[1] = Antiproliferative activity against human skin fibroblast
A549 [2] = test: Cell cycle arrest in human A549 cells assessed as accumulation at S phase at 50 uM after 24 hrs by acridine orange staining-based flow cytometry (Rvb =26.89 +/- 2.997 %); type: functional
A549 [3] = test: Effect on cyclinD1 protein expression in human A549 cells at 1 to 100 uM after 24 hrs by Western blot analysis; type: functional, cell-based
Homo sapiens [4] = species: Homo sapiens; test: Antiproliferative activity against human neuroblastoma cells; type: functional, cell-based
[5] = Antiproliferative activity against human astrocytes; type: cell-based; conditions: astrocyte
Homo sapiens [6] = species: Homo sapiens; test: Antiproliferative activity against human lung adenocarcinoma cells; type: functional
[7] = molecular target: Dual specificity mitogen-activated protein kinase kinase; MEK1/2 (Homo sapiens) (UniProt P36507+Q02750); test: Inhibition of MEK1/2 phosphorylation in human A549 cells after 24 hrs by Western blot analysis; type: cell-based
A549 [8] = test: Effect on ERK1 gene expression in human A549 cells at 5 to 25 uM after 24 hrs by RT-PCR analysis; type: functional, cell-based
[9] = molecular target: T1, Mitogen-activated protein kinase; ERK1/ERK2 (Homo sapiens) (UniProt P27361+P28482); test: Inhibition of ERK1/2 phosphorylation in human A549 cells at 25 uM by Western blot analysis; type: cell-based; conditions: TDE = time-dependent effect
[10] = molecular target: T1, Mitogen-activated protein kinase; ERK1/ERK2 (Homo sapiens); test: Inhibition of PMA-stimulated ERK1/2 phosphorylation in human A549 cells after 24 hrs by Western blot analysis; type: cell-based
A549 [11] = test: Cell cycle arrest in human A549 cells assessed as accumulation at S phase at 25 uM after 24 hrs by acridine orange staining-based flow cytometry (Rvb =26.89 +/- 2.997 %); type: functional
[12] = molecular target: T1, Mitogen-activated protein kinase; ERK1/ERK2 (Homo sapiens); test: Inhibition of ERK1/2 phosphorylation in human A549 cells after 24 hrs by Western blot analysis; type: cell-based
A549 [13] = test: Effect on CREB1 gene expression in human A549 cells at 5 to 25 uM after 24 hrs by RT-PCR analysis; type: functional, cell-based
A549 [14] = test: Cell cycle arrest in human A549 cells assessed as accumulation at S phase at 10 uM after 24 hrs by acridine orange staining-based flow cytometry (Rvb =26.89 +/- 2.997 %); type: functional
A549 [15] = test: Cell cycle arrest in human A549 cells after 24 hrs by acridine orange staining-based flow cytometry; type: functional
A549 [16] = test: Cell cycle arrest in human A549 cells assessed as accumulation at G2/M phase at 10 uM after 24 hrs by acridine orange staining-based flow cytometry (Rvb =16.66 +/- 0.622 %); type: functional
A549 [17] = test: Effect on p21Waf1/Cip1 protein expression in human A549 cells at 1 to 100 uM after 24 hrs by Western blot analysis; type: functional, cell-based
A549 [18] = test: Cell cycle arrest in human A549 cells assessed as accumulation at G2/M phase at 50 uM after 24 hrs by acridine orange staining-based flow cytometry (Rvb =16.66 +/- 0.622 %); type: functional
A549 [19] = test: Cell cycle arrest in human A549 cells assessed as accumulation at G0/G1 phase at 25 uM after 24 hrs by acridine orange staining-based flow cytometry (Rvb =44.85 +/- 0.866 %); type: functional
A549 [20] = test: Effect on p27/Kip protein expression in human A549 cells at 1 to 100 uM after 24 hrs by Western blot analysis; type: functional, cell-based
Medulloblastoma cell = test: Antiproliferative activity against human medulloblastoma cells; type: functional
A549 [21] = test: Inhibition of Rsk90 phosphorylation in human A549 cells after 24 hrs by Western blot analysis; type: cell-based
A549 [22] = test: Cell cycle arrest in human A549 cells assessed as accumulation at G2/M phase at 25 uM after 24 hrs by acridine orange staining-based flow cytometry (Rvb =16.66 +/- 0.622 %); type: functional
A549 [23] = test: Cell cycle arrest in human A549 cells assessed as accumulation at G0/G1 phase at 10 uM after 24 hrs by acridine orange staining-based flow cytometry (Rvb =44.85 +/- 0.866 %); type: functional
[24] = molecular target: T1, Mitogen-activated protein kinase; ERK1/ERK2 (Homo sapiens); test: Inhibition of ERK1/2 phosphorylation in human A549 cells assessed as peak effect time by Western blot analysis; type: cell-based
Rhabdomyosarcoma cell = test: Antiproliferative activity against human rhabdomyosarcoma cells; type: functional, cell-based
A549 [25] = test: Effect on total ERK1/2 levels in human A549 cells by Western blot analysis in presence of PMA; type: functional, cell-based
A549 [26] = test: Inhibition of CREB phosphorylation in human A549 cells after 24 hrs by Western blot analysis; type: cell-based
A549 [27] = test: Effect on total ERK1/2 levels in human A549 cells by Western blot analysis; type: functional, cell-based
Homo sapiens [28] = species: Homo sapiens; test: Antiproliferative activity against human colon adenocarcinoma cells; type: functional
Glioma cell = test: Antiproliferative activity against human glioma cells; type: functional, cell-based
Hepatocyte = test: Antiproliferative activity against human hepatocytes; type: cell-based
A549 [29] = test: Cell cycle arrest in human A549 cells assessed as accumulation at G0/G1 phase at 50 uM after 24 hrs by acridine orange staining-based flow cytometry (Rvb =44.85 +/- 0.866 %); type: functional

T1 sequence (P27361 whole entry, looked up): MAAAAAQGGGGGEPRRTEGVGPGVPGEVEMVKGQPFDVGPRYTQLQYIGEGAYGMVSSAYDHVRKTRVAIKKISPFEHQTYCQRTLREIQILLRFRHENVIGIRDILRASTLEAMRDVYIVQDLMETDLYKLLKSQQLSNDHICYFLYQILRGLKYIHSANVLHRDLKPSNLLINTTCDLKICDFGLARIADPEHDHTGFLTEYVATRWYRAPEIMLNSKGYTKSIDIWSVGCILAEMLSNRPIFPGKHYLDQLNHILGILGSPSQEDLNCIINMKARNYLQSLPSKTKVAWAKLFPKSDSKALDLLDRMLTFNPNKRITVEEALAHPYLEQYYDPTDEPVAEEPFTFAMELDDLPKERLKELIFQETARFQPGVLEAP
T1 sequence (P28482 whole entry, looked up): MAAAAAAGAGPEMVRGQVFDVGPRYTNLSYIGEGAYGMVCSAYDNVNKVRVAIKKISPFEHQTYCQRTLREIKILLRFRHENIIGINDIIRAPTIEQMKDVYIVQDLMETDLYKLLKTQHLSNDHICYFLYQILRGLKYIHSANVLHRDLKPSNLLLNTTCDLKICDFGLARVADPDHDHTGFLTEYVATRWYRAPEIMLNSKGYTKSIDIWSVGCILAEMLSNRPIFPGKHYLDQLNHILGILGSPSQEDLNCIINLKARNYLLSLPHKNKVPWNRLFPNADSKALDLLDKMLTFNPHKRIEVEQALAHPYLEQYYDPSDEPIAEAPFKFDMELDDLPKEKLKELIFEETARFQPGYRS
Sequence of Dual specificity mitogen-activated protein kinase kinase; MEK1/2 (Homo sapiens) (P36507 whole entry, looked up): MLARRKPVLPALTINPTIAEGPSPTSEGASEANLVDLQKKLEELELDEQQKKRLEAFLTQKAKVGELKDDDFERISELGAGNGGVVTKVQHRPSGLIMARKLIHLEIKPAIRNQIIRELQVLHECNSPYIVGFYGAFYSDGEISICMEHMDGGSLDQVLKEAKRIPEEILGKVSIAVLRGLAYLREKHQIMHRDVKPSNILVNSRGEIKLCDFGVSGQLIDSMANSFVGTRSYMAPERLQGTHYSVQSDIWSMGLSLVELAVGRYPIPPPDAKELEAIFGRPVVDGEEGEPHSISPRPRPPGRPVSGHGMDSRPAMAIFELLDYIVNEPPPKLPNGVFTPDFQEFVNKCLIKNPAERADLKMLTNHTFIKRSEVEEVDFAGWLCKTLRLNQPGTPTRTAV
Sequence of Dual specificity mitogen-activated protein kinase kinase; MEK1/2 (Homo sapiens) (Q02750 whole entry, looked up): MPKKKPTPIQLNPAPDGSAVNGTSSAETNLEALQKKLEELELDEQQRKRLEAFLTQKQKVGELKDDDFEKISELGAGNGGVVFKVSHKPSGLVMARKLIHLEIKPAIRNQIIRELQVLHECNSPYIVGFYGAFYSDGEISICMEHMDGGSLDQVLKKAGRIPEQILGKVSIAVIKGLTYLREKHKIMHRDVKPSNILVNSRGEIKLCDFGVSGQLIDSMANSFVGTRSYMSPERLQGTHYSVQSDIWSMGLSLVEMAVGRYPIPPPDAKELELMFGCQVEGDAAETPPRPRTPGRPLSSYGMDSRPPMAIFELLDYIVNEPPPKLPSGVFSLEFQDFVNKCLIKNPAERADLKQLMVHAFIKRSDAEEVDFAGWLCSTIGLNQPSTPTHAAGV

For `Oc1ccc(-c2nnc(Nc3ccc(F)cc3)s2)c(O)c1`, the Activity [1] was “Non-toxic”, the Activity (A549 [2]) was 11.31% and the Activity (A549 [3]) was “inactive”. The Activity (Homo sapiens [4]) was “Active”, the Activity [5] was “Non-toxic” and the Activity (Homo sapiens [6]) was “Active”. The inhibition [7] was “Active”, the Activity (A549 [8]) was “inactive” and the inhibition [9] was “tde”. For the same compound, the inhibition [10] was “Dose-dependent effect”, the Activity (A549 [11]) was 19.84% and the inhibition [12] was “Dose-dependent effect”. For the same compound, the Activity (A549 [13]) was “inactive”, the Activity (A549 [14]) was 22.62% and the Activity (A549 [15]) was “Dose-dependent effect”. For the same compound, the Activity (A549 [16]) was 12.89%, the Activity (A549 [17]) was “inactive” and the Activity (A549 [18]) was 5.403%. For the same compound, the Activity (A549 [19]) was 46.97%, the Activity (A549 [20]) was “inactive” and the Activity (Medulloblastoma cell) was “Active”. The inhibition (A549 [21]) was “Active”, the Activity (A549 [22]) was 11.03% and the Activity (A549 [23]) was 43.4%. For the same compound, the TIME [24] was 24 h, the Activity (Rhabdomyosarcoma cell) was “Active” and the Activity (A549 [25]) was “inactive”. The inhibition (A549 [26]) was “Active”, the Activity (A549 [27]) was “inactive” and the Activity (Homo sapiens [28]) was “Active”. For the same compound, the Activity (Glioma cell) was “Active”, the Activity (Hepatocyte) was “Non-toxic” and the Activity (A549 [29]) was 57.4%.
